Experimental data published in the NIST ThermoML archive (doi:10.1021/acs.jced.7b00657).
Numbers after ± are expanded uncertainties.

What was measured:
[1] = refractive index (Na D-line) (dimensionless); settings: 293 K; 101.33 kPa; Liquid; Standard Abbe refractometry
[2] = 298 K; 101.33 kPa; Liquid; Vibrating tube method

- refractive index [1]: 1.268 ± 0.001
- mass density [2]: 1756 ± 1 kg/m3
SMILES: FC(F)(F)C(F)(F)C(F)(F)C(F)(F)C(F)(F)C(F)(F)C(F)(F)C(F)(F)F [octadecafluorooctane]
